These results are taken from ChEMBL document CHEMBL3856276, “Design, Synthesis, and Biological Evaluation of Novel Tetrahydroprotoberberine Derivatives (THPBs) as Selective α1A-Adrenoceptor Antagonists” (J Med Chem, 2016).

One data set is filed under the species Homo sapiens. Briefly: Selectivity ratio of IC50 for human full-length N-terminal SNAP-tagged alpha1B adrenoceptor to IC50 for human full-length N-terminal SNAP-tagged alpha1A adrenoceptor.
A short description of data set [1]: Tmax in rat at 10 mg/kg, iv. The data set is classed as ADME, organism-based. To be noted: in vivo.
The nature of data set [2]: Apparent clearance in rat at 10 mg/kg, iv. The data set is classed as ADME, organism-based. To be noted: in vivo, read-out: CL(app) (converted).
Data set [3] deals with Mus musculus. Briefly: Acute toxicity in Kunming mouse assessed as effect on fur colour at 500 mg/kg, po administered as single dose measured over 7 days. The data set is classed as organism-based. The conditions noted are these: in vivo, 168 h.
Data set [4] is described as follows: Half life in rat at 20 mg/kg, ig via oral gavage. The data set is classed as ADME, organism-based. The conditions noted are these: in vivo.
Data set [5] addresses T1, Alpha-1D adrenergic receptor (Homo sapiens, UniProt P25100).
T1 sequence (P25100 whole entry): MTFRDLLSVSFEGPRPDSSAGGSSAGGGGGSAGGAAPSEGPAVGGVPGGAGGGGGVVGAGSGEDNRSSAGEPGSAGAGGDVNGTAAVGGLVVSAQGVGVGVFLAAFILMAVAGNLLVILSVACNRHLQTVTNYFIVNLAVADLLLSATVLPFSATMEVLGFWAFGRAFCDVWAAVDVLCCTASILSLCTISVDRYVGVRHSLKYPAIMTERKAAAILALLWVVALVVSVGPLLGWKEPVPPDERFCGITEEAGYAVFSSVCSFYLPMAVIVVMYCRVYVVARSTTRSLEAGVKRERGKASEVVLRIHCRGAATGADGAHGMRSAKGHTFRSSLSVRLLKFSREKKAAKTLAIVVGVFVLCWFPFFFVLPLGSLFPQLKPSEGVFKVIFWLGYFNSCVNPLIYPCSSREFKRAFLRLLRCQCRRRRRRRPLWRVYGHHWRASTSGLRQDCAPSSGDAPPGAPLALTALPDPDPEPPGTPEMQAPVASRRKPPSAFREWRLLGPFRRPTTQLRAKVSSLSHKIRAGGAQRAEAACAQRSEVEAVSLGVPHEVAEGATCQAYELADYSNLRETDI
Description: Antagonist activity at human full-length N-terminal SNAP-tagged alpha1D adrenoceptor expressed in HEK293 cells assessed as inhibition of agonist-induced calcium mobilization preincubated for 10 mins followed by agonist addition by fluo-4 AM dye-based assay

A short description of data set [6]: Oral bioavailability in rat at 20 mg/kg, ig via gavage. The data set is classed as ADME, organism-based. The conditions noted are these: in vivo.
Data set [7] deals with Mus musculus. The experiment in a line: Acute toxicity in Kunming mouse assessed as effect on behavior at 500 mg/kg, po administered as single dose measured over 7 days. To be noted: in vivo, 168 h. It is filed as organism-based.
The target of data set [8] is Voltage-gated inwardly rectifying potassium channel KCNH2 (Homo sapiens, UniProt Q12809). The experiment in a line: Inhibition of human ERG.
A short description of data set [9]: Selectivity ratio of IC50 for alpha1B adrenoceptor in Sprague-Dawley rat aorta to IC50 for alpha1A adrenoceptor in Sprague-Dawley rat urethra.

A value given as a limit tells only on which side of the number the result lay.

Voltage-gated inwardly rectifying potassium channel KCNH2, sequence (Q12809 whole entry): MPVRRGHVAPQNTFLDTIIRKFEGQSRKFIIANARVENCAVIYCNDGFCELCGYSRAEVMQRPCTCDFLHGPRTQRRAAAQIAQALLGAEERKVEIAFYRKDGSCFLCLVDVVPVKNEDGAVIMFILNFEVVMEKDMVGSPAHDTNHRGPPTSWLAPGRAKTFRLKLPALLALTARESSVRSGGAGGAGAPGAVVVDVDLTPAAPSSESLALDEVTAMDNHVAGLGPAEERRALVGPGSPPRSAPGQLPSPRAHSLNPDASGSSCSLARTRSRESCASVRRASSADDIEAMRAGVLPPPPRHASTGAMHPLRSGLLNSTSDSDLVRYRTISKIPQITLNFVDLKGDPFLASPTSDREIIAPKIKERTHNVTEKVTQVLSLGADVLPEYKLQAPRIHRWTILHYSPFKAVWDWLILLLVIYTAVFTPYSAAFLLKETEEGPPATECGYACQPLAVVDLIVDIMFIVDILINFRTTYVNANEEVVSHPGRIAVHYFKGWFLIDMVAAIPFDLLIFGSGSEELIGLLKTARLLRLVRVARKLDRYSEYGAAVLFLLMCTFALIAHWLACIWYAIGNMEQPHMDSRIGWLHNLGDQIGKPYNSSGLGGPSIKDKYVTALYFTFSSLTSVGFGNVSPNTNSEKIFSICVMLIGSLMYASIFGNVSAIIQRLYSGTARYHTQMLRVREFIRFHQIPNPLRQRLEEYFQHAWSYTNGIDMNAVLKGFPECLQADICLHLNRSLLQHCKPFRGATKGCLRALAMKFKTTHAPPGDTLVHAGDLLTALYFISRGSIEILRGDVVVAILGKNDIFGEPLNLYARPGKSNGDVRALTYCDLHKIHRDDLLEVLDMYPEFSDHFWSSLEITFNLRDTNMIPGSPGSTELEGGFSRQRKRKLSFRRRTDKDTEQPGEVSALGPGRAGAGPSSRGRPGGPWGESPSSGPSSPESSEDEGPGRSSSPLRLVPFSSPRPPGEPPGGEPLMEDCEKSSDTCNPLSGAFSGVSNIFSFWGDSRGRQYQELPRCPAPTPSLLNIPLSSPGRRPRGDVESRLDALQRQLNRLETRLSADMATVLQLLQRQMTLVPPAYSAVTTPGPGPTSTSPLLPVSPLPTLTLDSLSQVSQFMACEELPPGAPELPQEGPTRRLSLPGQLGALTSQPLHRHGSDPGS

The Tmax is the time at which the peak concentration occurs. In general, half-life refers to the time needed for the level to fall by half in the phase considered. As usually defined, the IC50 is the concentration that gives 50% inhibition. In general, bioavailability refers to the share of a dose that reaches the circulation, judged against a reference dose that is usually intravenous. A higher bioavailability goes with good availability. With `COc1ccc2[nH]c3c(c2c1)C[C@H]1c2cc4c(cc2CCN1C3)OCO4`, the Ratio IC50 was over 781 in the data set listed under Homo sapiens and over 2083 in data set [9]. Moreover, in data set [1], the time of peak concentration (Tmax) stood at 15 min. The clearance in data set [2] is 96.5 mL/min/kg. The Activity result with Mus musculus [3] and in the data set on Mus musculus [7] was “Non-Toxic” throughout. This compound also showed a half-life in data set [4] of 70.8 min. For the same compound, the figures for the concentration for half-maximal inhibition (IC50) in data set [5] and in data set [8] were 0.251 µM and 13.2 µM, respectively. Besides, in data set [6], the bioavailability stood at 60.9%.
